The text below walks through data of the METLIN SMRT retention time set (Domingo-Almenara et al. 2019).

This data set is described as follows: gradient 5% acetonitrile 3 min, to 50% in 2 min, to 85% in 15 min, held 3 min, 100 µL/min. The conditions noted are these: column: Zorbax Extend-C18 2.1 x 50 mm; eluents: water / acetonitrile, 0.1% formic acid. The essentials:
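A Zorbax Extend-C18 column (2.1 × 50 mm, 1.8 μm) run at 100 μL/min with water and acetonitrile, both containing 0.1% formic acid, separated mixtures of ~100 pure standards. The HPLC was coupled to a quadrupole time-of-flight mass spectrometer operated in positive and negative ionization mode, with dead and dwell volumes of 40 μL and 900 μL. Each retention time was taken from a computationally picked adduct peak that was then manually inspected.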
For `O=C(NCc1cccs1)C1CCN(Cc2cc3ccccc3n2Cc2cccc(F)c2)CC1`, the RP-LC retention time stood at 779 s.

`C/C=C1\C2C=C(C)C[C@]1(N)c1ccc(=O)[nH]c1C2` displayed an RP-LC retention time of 578 s.

`CC1CCCN(S(=O)(=O)c2ccc(-c3nnc(C(C)C)o3)o2)C1` (stereo not drawn) gave an RP-LC retention time of 977 s.

The compound `CC(C)NC(=O)N1CCCC(Cn2c(C3CC3)nc3cccnc32)C1` (stereo not drawn) displayed an RP-LC retention time of 604 s.

`O=C(Nc1cccc2c(=O)cc(-c3nn[nH]n3)oc12)c1ccc(OCCCCc2ccccc2)cc1` yielded an RP-LC retention time of 1180 s.

`Cc1ccc(-c2ccc(=O)n(CCc3nc(-c4ccc5c(c4)OCO5)no3)n2)cc1`: the RP-LC retention time was 711 s.

As to `Cc1noc([C@@H]2CN(C(=O)Cc3ccsc3)C[C@H]2C(N)=O)n1`, the RP-LC retention time was determined as 618 s.

In turn, `O=C1/C(=C/c2cc(Br)cc3c2OCOC3)Oc2cc(OC(=O)C3CC3)ccc21` gave an RP-LC retention time of 1200 s.

Consider `COc1ccc(S(=O)(=O)N2CCCC(C(=O)NCC3CCCO3)C2)cc1C` (stereo not drawn), for which the RP-LC retention time is 778 s.

Regarding `CC(C)Cc1ccc(C(C)C(=O)N2CC(=O)Nc3ccccc32)cc1` (stereo not drawn), the RP-LC retention time is 968 s.

Take `CCC(=O)N1CCc2cc(N3CC(C(=O)NCc4cc(F)cc(F)c4)CC3=O)ccc21` (stereo not drawn): the RP-LC retention time was found to be 734 s.

`CN1C(=O)COc2cc(-c3noc(C(=O)N4CCCCC4)n3)ccc21` returned an RP-LC retention time of 841 s.

On to `Cc1ccc(-n2c(Cc3cccn3C)nnc2SCC(=O)NCC2CCCO2)cc1` (stereo not drawn), for which the RP-LC retention time was 744 s.

The compound `CCc1ccc(-c2cc3c(=O)n(Cc4noc(CN5CCCCC5CC)n4)ccn3n2)cc1` (stereo not drawn) had an RP-LC retention time of 778 s.

Compound `CCc1cc(C(=O)N2CCN(c3ccccc3)CC2)nc2ccnn12` showed an RP-LC retention time of 814 s.

Compound `COc1ccc(-c2nc3cnccn3c2Nc2cccc(Cl)c2C)cc1` displayed an RP-LC retention time of 965 s.

The compound `CC1=C(c2ccc(F)cc2)S(=O)(=O)N=C1N1CCC(C(=O)NCCc2ccco2)CC1` showed an RP-LC retention time of 802 s.

For the compound `CC(C)n1c(=O)c2ccccc2n(Cc2nc(-c3ccccc3Br)no2)c1=O`, the RP-LC retention time amounted to 1140 s.

On to `O=C(Nc1ccc2nc3n(c(=O)c2c1)CCC3)Nc1ccccc1Br`, for which the RP-LC retention time turned out to be 726 s.

On to `CCc1ccc(NC(=O)C2CC(=O)N(CCc3c[nH]c4ccc(OC)cc34)C2)cc1` (stereo not drawn), for which the RP-LC retention time was determined as 831 s.

For `CCn1cc(C2=CCN(C(=O)Nc3ccc(SC)cc3)CC2)c2cccnc21`, the RP-LC retention time was determined as 910 s.

For `CC(C)n1c(-c2cccc(C(=O)N3CCC4(CC3)OCCO4)c2)nc2cccnc21`, the RP-LC retention time was found to be 693 s.

The compound `CCc1ccc(NC(=O)CN2C(=O)C3CCCCN3c3ccc(S(=O)(=O)N(C)C)cc32)cc1` (stereo not drawn) yielded an RP-LC retention time of 817 s.

Regarding `CC(C)CCNC(=O)NCCc1nc2cccnc2n1Cc1ccccc1`, the RP-LC retention time came out at 726 s.

Turning to `COc1ccc(-n2c(=O)n(C)c(=O)c3cc(C(=O)NC(C)c4ccccc4)cnc32)cc1` (stereo not drawn), the RP-LC retention time amounted to 871 s.

`CCCc1nnsc1C(=O)NCC(c1cccs1)S(=O)(=O)c1ccc(C)cc1` (stereo not drawn) registered an RP-LC retention time of 921 s.

In turn, `O=C(CSc1ccc(N2CCOCC2)nn1)Nc1ccccc1Cl` registered an RP-LC retention time of 730 s.

Compound `CCOc1ccc(NC(=O)Cn2c(N)nc(CC)cc2=O)cc1` came in with an RP-LC retention time of 630 s.

For `O=C(COc1ccc(Cl)cc1)NCc1ccc2c(c1)OCCCO2`, the RP-LC retention time amounted to 870 s.

`Cc1nnc(C2CC3(CCN(CCc4ccccc4)CC3)CN2Cc2ccccc2)o1` (stereo not drawn) had an RP-LC retention time of 656 s.

As for `COc1ccc(CCNS(=O)(=O)c2cccc(-c3nc(-c4ccc(C)cc4)no3)c2)cc1OC`, the RP-LC retention time came out at 1150 s.

`COc1ccc(CC(=O)Nc2ccc3c(c2)Sc2ncccc2C(=O)N3C)cc1` registered an RP-LC retention time of 748 s.

Regarding `CCn1nnc2ccc(-c3noc(Cc4ccccc4C)n3)cc21`, the RP-LC retention time stood at 1030 s.

For `Cc1cc(C)c(S(=O)(=O)N2CCN(Cc3cccc(F)c3)C3(CCOCC3)C2)c(C)c1`, the RP-LC retention time was determined as 973 s.

`Cc1ccccc1CC(=O)N1CCc2cc(-c3ccno3)ccc21` registered an RP-LC retention time of 1020 s.

The compound `CCOc1ccccc1NC(=O)Cn1c(=O)n(CC(N)=O)c(=O)c2oc3ccccc3c21` showed an RP-LC retention time of 704 s.

For the compound `COCCCNC(=O)C1c2ccccc2C(=O)N1Cc1ccccc1F` (stereo not drawn), the RP-LC retention time amounted to 708 s.

`CCc1ccc(NC(=O)C2CCN(S(=O)(=O)c3c(C)[nH]c(C)c3C(=O)N3CCCC3)CC2)cc1` displayed an RP-LC retention time of 729 s.

In turn, `CCOc1ccc(CC(=O)N2CCN(c3ccc(NC(=O)c4ccccc4)nn3)CC2)cc1` had an RP-LC retention time of 667 s.

In turn, `O=C(Nc1cccc(F)c1)c1nnc(CSCC(=O)N2CCN(c3ccccn3)CC2)s1` showed an RP-LC retention time of 654 s.

`CCC(C(=O)NC1CC1)n1nc(C)c2c(C)n(-c3ccc(C)cc3)nc2c1=O` (stereo not drawn) displayed an RP-LC retention time of 802 s.

As for `N#Cc1cc2c(OCC(O)CN3CCN(C(c4ccccc4)c4ccccc4)CC3)cccc2[nH]1` (stereo not drawn), the RP-LC retention time turned out to be 819 s.

`Cc1nc(N2CCN(c3ccccn3)CC2)c2c(C)c(C(=O)Nc3cc(F)ccc3C)sc2n1` showed an RP-LC retention time of 733 s.

For the compound `O=C(NCc1ccc(Cl)cc1)c1c(O)c2cccnc2n(-c2ccccc2)c1=O`, the RP-LC retention time was determined as 1260 s.

Compound `O=C(NC1CCCCCC1)C1CCCN(c2ccnc(-c3ccc(F)cc3)n2)C1` (stereo not drawn) gave an RP-LC retention time of 730 s.

`CCOC(=O)c1c(C)c(CCC(=O)NCCN2CCN(C)CC2)n(C)c1C` had an RP-LC retention time of 596 s.

On to `CS(=O)(=O)c1ccc(CC(=O)Nc2cccc3ccccc23)cc1`, for which the RP-LC retention time is 710 s.

`O=C(CN1C(=O)C(C(=O)N2CCCC2)Sc2ccccc21)N1CCN(c2cccc(Cl)c2)CC1` (stereo not drawn) came in with an RP-LC retention time of 923 s.

`CCN1CCN(CCNC(=O)c2sc3cc(Cl)ccc3c2OC)CC1` returned an RP-LC retention time of 636 s.

Consider `COc1cccc(CNC(=O)C2CCN(S(=O)(=O)c3cn(C)cn3)CC2)c1`, for which the RP-LC retention time came out at 656 s.

In the case of `c1ccc(-c2csc(Nc3ncccn3)n2)cc1`, the RP-LC retention time amounted to 906 s.

For `Cc1ccc(CNC(=O)C2(C)Cn3cnc(C(=O)NC4CCCCC4)c3C(=O)N2C2CC2)cc1` (stereo not drawn), the RP-LC retention time is 819 s.

For the compound `CC(C)(C)c1ccc(OCC(=O)N(Cc2ccc(Br)o2)C2CCS(=O)(=O)C2)cc1` (stereo not drawn), the RP-LC retention time turned out to be 1060 s.

Consider `Cn1cc(C(CNC(=O)Nc2cccc(F)c2)c2cccnc2)c2ccccc21` (stereo not drawn), for which the RP-LC retention time was determined as 660 s.

As to `COc1cccc(CNC(=O)Cn2c(N(C)Cc3ccccc3)nc(C)cc2=O)c1OC`, the RP-LC retention time was 660 s.

Compound `O=C(Nc1cccc(-c2ccc(N3CCOCC3)nn2)c1)Nc1cccc(Cl)c1F` yielded an RP-LC retention time of 770 s.

In turn, `CCOc1ccccc1CNC(=O)C1CCN(C(=O)c2ncn3c2COC(c2ccccc2)C3)CC1` (stereo not drawn) showed an RP-LC retention time of 803 s.

`Cc1cc(NC(=O)C2CCN(C(=O)c3ncn4c3COC(c3ccc(F)cc3)C4)CC2)ccc1F` (stereo not drawn) displayed an RP-LC retention time of 839 s.

`O=C(NC1CC1)C1CCCN(C(=O)c2cc(-c3ccncc3)n[nH]2)C1` (stereo not drawn) registered an RP-LC retention time of 538 s.

`CC1CCCN(c2ncc(C(=O)NCc3ccccc3)c(N)n2)C1` (stereo not drawn) returned an RP-LC retention time of 597 s.

For `CC(CC(C#N)(c1ccccc1)c1ccccc1)N1CCCCC1` (stereo not drawn), the RP-LC retention time was determined as 780 s.

Consider `CC(C)CNC(=O)N1CCC(CCOc2ccncc2)CC1`, for which the RP-LC retention time is 594 s.

The compound `CCOc1ccc(N2CCn3c2nnc(C(=O)NCC2CCCO2)c3=O)cc1` (stereo not drawn) yielded an RP-LC retention time of 637 s.

As to `CN(Cc1ccccc1)c1ncc(C(=O)Nc2ccccc2)c(N)n1`, the RP-LC retention time came to 731 s.

Turning to `O=C(NC1(c2nc(-c3ccccc3)no2)CCCCC1)c1ccccc1F`, the RP-LC retention time was 1100 s.

The compound `COc1cccc2cc(C(=O)NCC3CCN(S(=O)(=O)C4CC4)CC3)oc12` returned an RP-LC retention time of 754 s.

`CC(C)CN1Cc2ccccc2-n2ccnc2C12CCN(C(=O)c1ccco1)CC2` had an RP-LC retention time of 654 s.

Take `O=S(=O)(c1cccnc1)N1CCC2(CC1)NCCc1c2[nH]c2ccccc12`: the RP-LC retention time was found to be 640 s.

For `Cc1noc2ncnc(N3CCCC(C(=O)Nc4ccc(N5CCC(C)CC5)cc4)C3)c12` (stereo not drawn), the RP-LC retention time stood at 698 s.

As to `O=C(NC1CCCC1)N1CC(Oc2ccc(-c3nc(-c4ccccc4)no3)cc2)C1`, the RP-LC retention time stood at 1080 s.

In turn, `O=C(Cn1nc2nc(Nc3ccc(F)cc3)ccn2c1=O)Nc1ccc(F)cc1` came in with an RP-LC retention time of 751 s.

In the case of `CCc1ccc(NC(=O)C2CCN(c3cncnc3N3CCOCC3)CC2)cc1`, the RP-LC retention time was 675 s.

Turning to `O=C(NCc1n[nH]c(=O)c2ccccc12)C1CC(=O)N(c2ccccc2)C1` (stereo not drawn), the RP-LC retention time was 594 s.

`O=S(=O)(c1cccn2c(SCc3ccncc3)nnc12)N1CCN(c2ccc(F)cc2)CC1` showed an RP-LC retention time of 663 s.

Consider `N#Cc1ccc(C(=O)NC2CCN(c3cc(-c4cccs4)[nH]n3)C2)cc1` (stereo not drawn), for which the RP-LC retention time turned out to be 700 s.

As for `CCCn1cnc2ccc(-c3noc(CNC(=O)c4ccccc4)n3)cc21`, the RP-LC retention time was determined as 655 s.

As for `CCc1nn2c(N3CCN(c4ccccn4)CC3)cc(C)nc2c1-c1ccc(F)cc1`, the RP-LC retention time came to 686 s.

In turn, `COc1ccc(NC(=O)c2nnc(COCC(=O)NCCc3c[nH]c4ccc(C)cc34)s2)cc1` displayed an RP-LC retention time of 892 s.
